For this assay, the target named is T1, human PAH with the R408W mutation (A375 R408W cells) (Homo sapiens, UniProt P00439, R408W).
T1 construct: expressed in transfected cells
T1 sequence (P00439 1-452 R408W): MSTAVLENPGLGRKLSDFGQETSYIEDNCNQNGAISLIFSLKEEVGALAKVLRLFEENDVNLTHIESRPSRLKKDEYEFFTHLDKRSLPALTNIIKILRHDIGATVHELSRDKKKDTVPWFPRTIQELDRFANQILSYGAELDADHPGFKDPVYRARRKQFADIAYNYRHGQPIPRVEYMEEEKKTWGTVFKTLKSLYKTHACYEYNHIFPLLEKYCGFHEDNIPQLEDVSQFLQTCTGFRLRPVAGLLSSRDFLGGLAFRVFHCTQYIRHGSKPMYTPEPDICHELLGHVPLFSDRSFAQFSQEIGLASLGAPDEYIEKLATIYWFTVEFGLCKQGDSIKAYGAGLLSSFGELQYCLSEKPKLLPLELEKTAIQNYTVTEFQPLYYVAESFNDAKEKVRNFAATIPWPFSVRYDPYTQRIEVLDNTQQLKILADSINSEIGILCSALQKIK
As to the kind of experiment: Cell Based Phenylalanine Flux Assay. Conditions: 24 hrs with compound, then 20 μM sepiapterin and 800 μM 13C9,15N-Phenylalanine for 4 hours, 13C-Tyrosine by LC-MS, average where tested multiple times. In short, it runs like this:
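Phenylalanine-to-tyrosine flux is measured in A375 cells carrying stable human R408W PAH. After 24 h compound exposure, 13C9,15N-Phe (800 μM) with sepiapterin (20 μM) is supplied for 4 h and media 13C-Tyr is read by LC-MS; AC50s are binned.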

Where [1] appears, read: A375 cells expressing R408W PAH.

We go through 17 molecules from US20250171437A1 (Agios Pharmaceuticals,Inc., priority 2022, published 2025).

What is called AC50 is the concentration giving half of the maximal activity seen.

With `O=C(c1cnn2cc(N3CCC4(CC3)CC4)ccc12)N1CCc2[nH]cnc2[C@H]1c1nc2cccc(F)c2o1` [Example 395, (S)-(6-(6-azaspiro[2.5]octan-6-yl)pyrazolo[1,5-a]pyridin-3-yl)(4-(7-fluorobenzo[d]oxazol-2-yl)-6,7-dihydro-1H-imidazo[4,5-c]pyridin-5(4H)-yl)methanone], for the setting “A375 R408W cells”, the AC50 fell in the range of 500 to 1000 nM.

As for `O=C(c1nnc(-c2ccccn2)o1)N1CCc2[nH]cnc2[C@H]1c1nc2ccc(F)c(F)c2o1` [Example 546, (S)-(4-(6,7-difluorobenzo[d]oxazol-2-yl)-6,7-dihydro-1H-imidazo[4,5-c]pyridin-5(4H)-yl)(5-(pyridin-2-yl)-1,3,4-oxadiazol-2-yl)methanone], the AC50 (A375 R408W cells) lay within 500 to 1000 nM.

Turning to `O=C1CCCN1CCOc1ccc2c(C(=O)N3CCc4[nH]cnc4C3c3nc4cc(F)ccc4o3)cnn2c1` (centres unmarked), the AC50 under setting [1] is no less than 5000 nM.

For the molecule `Cn1nc(-c2ccccn2)nc1C(=O)N1CCc2[nH]cnc2C1c1nc2cccc(F)c2o1` (centres unmarked), the half-maximal activity concentration (AC50) under setting [1] was no less than 5000 nM.

For `O=C(c1ccnn1C(F)(F)F)N1CCc2[nH]cnc2[C@H]1c1nc2cccc(F)c2o1` [Example 289, (S)-(4-(7-fluorobenzo[d]oxazol-2-yl)-6,7-dihydro-1H-imidazo[4,5-c]pyridin-5(4H)-yl)(1-(trifluoromethyl)-1H-pyrazol-5-yl)methanone], the half-maximal activity concentration (AC50) (A375 R408W cells) fell in the range of 500 to 1000 nM.

On to `Cn1ccc(-c2nnc(C(=O)N3CCc4[nH]cnc4[C@H]3c3nc4cc(F)ccc4o3)o2)n1` [Example 106, (S)-(4-(5-fluorobenzo[d]oxazol-2-yl)-6,7-dihydro-1H-imidazo[4,5-c]pyridin-5(4H)-yl)(5-(1-methyl-1H-pyrazol-3-yl)-1,3,4-oxadiazol-2-yl)methanone], for which the half-maximal activity concentration (AC50) (A375 R408W cells) fell in the range of 1000 to 5000 nM.

Consider `CN1CCN(c2ccc3c(C(=O)N4CCc5[nH]cnc5[C@@H]4c4nc5c(F)cccc5o4)cnn3c2)CC1` [Example 476, (R)-(4-(4-fluorobenzo[d]oxazol-2-yl)-6,7-dihydro-1H-imidazo[4,5-c]pyridin-5(4H)-yl)(6-(4-methylpiperazin-1-yl)pyrazolo[1,5-a]pyridin-3-yl)methanone], for which the concentration at half-maximal activity (AC50) (A375 R408W cells) is 1000 to 5000 nM.

On to `Cc1nc(C2(O)CCC2)oc1C(=O)N1CCc2[nH]cnc2C1c1nc2cc(F)ccc2o1` (centres unmarked), for which the AC50 under setting [1] is no less than 5000 nM.

Regarding `COc1cccc2oc([C@@H]3c4nc[nH]c4CCN3C(=O)c3ccnn3C(F)F)nc12` [Example 603, (S)-(1-(difluoromethyl)-1H-pyrazol-5-yl)(4-(4-methoxybenzo[d]oxazol-2-yl)-6,7-dihydro-1H-imidazo[4,5-c]pyridin-5(4H)-yl)methanone], the AC50 (A375 R408W cells) was no more than 500 nM.

With `Cn1nc(C(C)(C)C)cc1C(=O)N1CCc2[nH]cnc2C1c1nc2cccc(F)c2o1` (centres unmarked), under setting [1], the AC50 is 1000 to 5000 nM.

Take `CN1CCN(c2cn3ncc(C(=O)N4CCc5[nH]cnc5[C@@H]4c4nc5cc(F)ccc5o4)c3cc2Cl)CC1` [Example 182, (R)-(5-chloro-6-(4-methylpiperazin-1-yl)pyrazolo[1,5-a]pyridin-3-yl)(4-(5-fluorobenzo[d]oxazol-2-yl)-6,7-dihydro-1H-imidazo[4,5-c]pyridin-5(4H)-yl)methanone]: under “A375 R408W cells”, the AC50 is 1000 to 5000 nM.

Consider `CNCCc1ccc2c(C(=O)N3CCc4[nH]cnc4C3c3nc4cc(F)ccc4o3)cnn2c1` (centres unmarked), for which the half-maximal activity concentration (AC50) under setting [1] was no less than 5000 nM.

In the case of `COc1cccc2nc([C@H]3c4nc[nH]c4CCN3C(=O)c3cc(C)nn3C)oc12` [Example 822, (R)-(1,3-dimethyl-1H-pyrazol-5-yl)(4-(7-methoxybenzo[d]oxazol-2-yl)-6,7-dihydro-1H-imidazo[4,5-c]pyridin-5(4H)-yl)methanone], the AC50 (A375 R408W cells) lay within 1000 to 5000 nM.

As for `Cc1ccc2nc(C3c4nc[nH]c4CCN3C(=O)c3nnc(C(C)(C)O)o3)oc2c1` (centres unmarked), the AC50 under setting [1] was no less than 5000 nM.

`CC1CN(C(=O)c2oc(C(C)(C)O)nc2C(F)F)C(c2nc3cc(F)ccc3o2)c2nc[nH]c21` (centres unmarked): the AC50 under setting [1] lay within 1000 to 5000 nM.

For `CC(C)(O)c1noc(C(=O)N2CCc3[nH]cnc3C2c2nc3cc(F)ccc3o2)n1` (centres unmarked), the AC50 under setting [1] was no less than 5000 nM.

`CC(O)c1nc(Cl)c(C(=O)N2CCc3[nH]cnc3[C@@H]2c2nc3cc(F)ccc3o2)o1` (single isomer, unassigned) [Example 234]: the AC50 (A375 R408W cells) is 1000 to 5000 nM.
